Experimental data published in US7713477B2, “Systems and methods for monitoring chemical and biological activities using differential measurements” (priority 2002, dated 2010).

Tests used:
TF-1 cells [1] = assay: Differential response of TF-1 cells stimulated vs un-stimulated, monitoring system of FIG. 8 (FIG. 9A); assay type: cell-based
Text: In this set of experiments, the monitoring system as shown in FIG. 8 was used to directly compare the activity of a known modification of the extra-cellular environment to controls. In the monitoring system of FIG. 8, two sample chambers (formed a fluid channels) 800a and 800b, along with four ports 801a-d, were fabricated using micromachining techniques on an acrylic substrate. The dimensions of the channels were approximately 250 micrometers wide, 100 micrometers deep, and with a total length of approximately 1.5 centimeters. The substrate was fastened in a water-tight manner, using thin film epoxy, to a pre-fabricated printed circuit board (not explicitly shown), on which eight gold-plated copper conductive traces 820a-d and 830a-d of width approximately 250 micrometers were deposited. Using the monitoring system architecture shown in FIG. 3D, in which the phase meter 223 was not present and DC-converters 224 and 225 comprised a device which converts and AC signal into a DC signal, whose amplitude is roughly the root-mean-square (RMS) of the AC amplitude. […]

TF-1 cells [2] = conditions: stated as known, background knowledge; cited from earlier work
TF-1 cells [3] = assay: Differential response of TF-1 cells against stimuli and controls at one, two and five minutes (FIG. 9B); assay type: cell-based; conditions: two and five minutes after stimulation, factor 100:1 dilution in d-PBS, 25 microliter into approximately 200 microliters cell suspension
Text: FIG. 9B illustrates a second set of experiments, in which the differential responses of a population of TF-1 cells against numerous stimuli and controls are shown at one minute, two minutes, and five minutes after stimulation. In these experiments, a population of TF-1 cells was fractionated into two portions of equal volume and cell density immediately before the experiment. One of the two fractions received a potential stimulus, and the other a control in the form of a quantity of pure Dulbecco's phosphate buffered saline (d-PBS)equal to the quantity of d-PBS which contained the stimulant. […] Next, a series of factors and interleukins was compared against a reference sample. Each factor was introduced into one of two fractionated volumes containing TF-1 cells, via a 100:1 dilution of factor to d-PBS, followed by a 25 microliter addition of the diluted factor into approximately 200 microliters of the cell suspension. At the same time, the reference population of cells was prepared by adding 25 microliters of d-PBS alone into the second of the two cell fractions. Both fractions were then inserted into their respective channels in the apparatus, wherein said reference population was always inserted in the same channel, and measurements of the differential voltage were taken at pre-defined intervals over a five minute period. After each experiment, both channels were flushed with ˜2 ml of cell-free culture media, to insure that all previous cellular material and any other potential compounds from a given experiment were removed from the channel before the subsequent experiment.

concanavalin-A = concanavalin-A (Canavalia ensiformis, UniProt P02866); assay: Binding of dextran in solution to concanavalin-A immobilized on the measurement probes (FIG. 6); conditions: phosphate buffered saline with calcium and magnesium, physiologic pH and osmolarity; regions 600b and 600c of FIG. 6
Text: A common AC voltage of approximately 40 millivolts and at a frequency of approximately 1 KHz is placed upon measurement probes 313 and 323. The circuit continues across the interface of measurement probes 313 and 323, through the conductive solution in sample chambers 310 and 320, and completed via attachment of signal grounds 314 and 324.
The voltage difference between measurement probes 313 and 317 is placed across the antipodal inputs of the first differential amplifier 221; similarly, the voltage across measurement probes 323 and 327 is placed across antipodal inputs of the second differential amplifier 222. The amplified differential voltages produced by 221 and 222 are fed into DC-converters 224 and 225 (e.g., root-mean-square averaging devices. The outputs 221a and 222a, being now of a DC nature, are input into antipodal inputs of the third differential amplifier 226, the resulting difference signal 227 being measured by a simple voltmeter 400, said voltmeter referenced to the common ground. This voltage is directly proportional to the difference in the voltage drops across the two pairs of measurement probes 313 and 317, and 323 and 327.
FIG. 6 illustrates the result of a second experiment using the monitoring system of FIG. 3B. […]

granulocyte-macrophage colony stimulating factor [GM-CSF]
time at which change in differential response begins (TF-1 cells [1]; AC approximately 10 KHz, thirty minute experiment, change continues nearly monotonic): around eight | differential response of stimulated cells over the control (TF-1 cells [1]; AC frequency approximately 10 KHz, about 2 million cells per milliliter, GM-CSF in quantity to elicit maximum response, followed thirty minutes): show a change in the differential response over the control | known activity against TF-1 cells (TF-1 cells [2]): induces cell proliferation in TF-1 cells | differential response over the three controls (TF-1 cells [3]): significantly larger differential response over the three controls

dextran
binding of dextran to immobilized concanavalin-A, shown as new voltage level (concanavalin-A): bound specifically to the immobilized concanavalin-A molecules

IL5: interleukin tested on TF-1 cells
differential response over the three controls (TF-1 cells [3]): significantly larger differential response over the three controls

bovine serum albumin [BSA, reference compound]
known activity against TF-1 cells (TF-1 cells [2]): known not to affect TF-1 cells

B1: IL4: interleukin tested on TF-1 cells (protein, UniProt P05112 25-153, looked up)
Interleukin-4: HKCDITLQEIIKTLNSLTEQKTLCTELTVTDIFAASKNTTEKETFCRAATVLRQFYSHHEKDTRCLGATAQQFHRHKQLIRFLKRLDRNLWGLAGLNSCPVKEANQSTLENFLERLKTIMREKYSKCSS
differential response over the three controls (TF-1 cells [3]): significantly larger differential response over the three controls
